Patent US20090088329A1, “MULTICOMPONENT PROTEIN MICROARRAYS” (priority 2002, published 2009)
Counter-ions that a name gives are not always drawn.

How the values were obtained:
[1] = target: T1, Urease (type IX from Jack Beans) (Canavalia ensiformis, UniProt P07374); test: biochemical; format: biochemical; settings: for Ki: 20 mM urea; for Km / kcat: Urease/FD; for kcat: pH 5.1
T1 construct: purchased Sigma (St. Louis, Mo.) type IX
Protocol: Preparation of Spotting Solutions: GOx and HRP were dissolved at concentration of 0.4 mg.mL^−1 (250 units.mg^−1) and 0.01 mg.mL^−1 (1000 units.mg^−1), respectively, in 50 mM sodium phosphate buffer, pH 7.4 to form the protein stock solutions. The Amplex Red reagent was made up to a stock concentration of 10 mM. Urease and fluorescein dextran were dissolved at concentrations of 2 mg.mL^−1 (35,400 units.g^−1) and 25 μM, respectively, in 50 mM Tris buffer containing 50 mM NaCl, pH 8 to form their respective stock solutions. GOx/HRP assay samples were prepared to a total volume of 50 μL by mixing 3 μL of each of the GOx and HRP stock solutions, 39 μL of sodium phosphate buffer and 5 μL of the Amplex Red dye solution. Negative and blank control samples were prepared in the same way except that phosphate buffer replaced the missing reagent. Positive control samples contained GOx and HRP as well as 15 μL of 100 μM D-glucose (in buffer) and only 24 μL of buffer. […] Similarly, the blank and positive control samples replaced the missing reagents with Tris buffer while the enzyme selectivity control was obtained by replacing urease with AChE (0.01 mg.mL^−1) in Tris buffer.
Enzyme Assays All enzyme assays and inhibition studies were performed in 96 well plates using a TECAN Safire absorbance/fluorescence platereader operated in fluorescence mode, or on the microarray using time-dependent fluorescence intensity measurements. The enzymatic activity of free and entrapped GOx in 96 well plates was measured by adding 50 μL of a solution containing varying concentrations of glucose to the microtiter well and monitoring of the fluorescence emission at 590 nm for 20 minutes (in solution) or 45 minutes (for entrapped GOx) with excitation at 573 nm. For microarrays, 20 μL of a glucose solution was added to the top of the array, left for 20 seconds and then removed by gently blowing air over the surface, followed by monitoring of fluorescence emission over time. […] Images were acquired before the addition of glucose and then every 30 seconds for 30 minutes after the introduction of glucose using a 30 second integration time per image. For urease, activity and inhibition were measured by adding 100 μL of a solution containing a constant amount of urea (20 mM) in the presence of varying amounts of thiourea (0-100 mM) to the microtiter well and the fluorescence emission of the fluorescein dextran was monitored at 520 nm for 15 minutes (solution) or 45 minutes (entrapped). Microarrays containing urease and fluorescein dextran were first imaged after washing with distilled deionized water (ddH2O, pH 5.1) to provide a constant baseline intensity response. Following this, 20 μL of a urea/thiourea solution was added to the top of the array, which was then covered with a coverslip to minimize solvent evaporation. The emission intensity of fluorescein dextran was measured every 20 seconds for 10 minutes using a 10 second integration time per image following the addition of the urea solution to the array. All samples were tested within 24 hours of being prepared.
For both enzymes studied the initial rate of change in fluorescence intensity was converted to a change in product concentration with time using calibration curves relating the emission intensity of fluorescein to the concentration of ammonium carbonate (for urease) or hydrogen peroxide (for GOx). The Michaelis constants (KM) and catalytic rate constants (kcat) for the enzymes were calculated by generating either double reciprocal (Lineweaver-Burk) plots relating (initial rate of product formation)^−1 to (substrate concentration)^−1 or Hanes-Wolff plots, and fitting these to a linear model. Inhibition constants (KI) for urease were calculated by assessing the changes in the initial rate values for the enzyme in the presence of varying levels of inhibitor, according to the equation: […]

[2] = target: urease (Canavalia ensiformis, UniProt P07374); settings: cited from earlier work
Sequence of urease (P07374 whole entry, looked up): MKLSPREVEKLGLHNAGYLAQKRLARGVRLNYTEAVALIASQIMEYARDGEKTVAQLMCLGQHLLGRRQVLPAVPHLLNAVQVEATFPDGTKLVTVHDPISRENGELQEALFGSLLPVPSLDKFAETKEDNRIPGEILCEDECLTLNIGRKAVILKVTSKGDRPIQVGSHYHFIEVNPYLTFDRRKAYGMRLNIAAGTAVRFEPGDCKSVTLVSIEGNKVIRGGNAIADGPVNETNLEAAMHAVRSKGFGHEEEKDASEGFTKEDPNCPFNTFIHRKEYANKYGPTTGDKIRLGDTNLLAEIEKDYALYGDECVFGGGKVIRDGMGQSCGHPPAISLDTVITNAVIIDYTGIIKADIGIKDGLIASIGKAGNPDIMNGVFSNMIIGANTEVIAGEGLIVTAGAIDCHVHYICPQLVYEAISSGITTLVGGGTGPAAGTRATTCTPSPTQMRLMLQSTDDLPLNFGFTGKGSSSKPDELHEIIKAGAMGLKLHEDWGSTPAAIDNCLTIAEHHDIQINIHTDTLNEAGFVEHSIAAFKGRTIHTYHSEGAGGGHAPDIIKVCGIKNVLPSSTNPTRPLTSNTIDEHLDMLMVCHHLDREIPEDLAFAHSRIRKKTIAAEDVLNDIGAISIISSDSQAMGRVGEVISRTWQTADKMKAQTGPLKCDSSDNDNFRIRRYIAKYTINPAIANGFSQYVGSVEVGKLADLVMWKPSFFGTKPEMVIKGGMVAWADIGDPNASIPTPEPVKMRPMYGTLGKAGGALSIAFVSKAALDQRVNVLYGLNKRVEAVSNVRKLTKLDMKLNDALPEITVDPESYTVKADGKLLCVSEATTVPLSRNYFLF

[3] = target: rhodamine-labelled calmodulin (CaM)/rhodamine-labelled melittin complex (Homo sapiens, UniProt P0DP23); test: Calmodulin-melittin sol-gel microarray, rhodamine self-quenching fluorescence; format: binding; settings: for effect on CaM-melittin complex / fluorescence intensity: addition to array, 20:1 molar ratio to CaM for guanidine hydrochloride
Source text: A third system involving protein-peptide interactions consisted of rhodamine-labelled calmodulin (CaM) and rhodamine-labelled mellitin, and was based on a slightly different fluorescence-based screening method utilizing these same biomolecules entrapped in sol-gel derived monoliths. In the absence of antagonists or denaturants (such as guanidine hydrochloride), these two species exist in a complex that brings the two rhodamine labels into close proximity, resulting in self-quenching and thus a low fluorescence signal.
Another example of a sol-gel derived microarray involving a protein-peptide interaction has been developed consisting of rhodamine-labelled calmodulin (CaM) and rhodamine-labelled melittin co-entrapped in a sodium silicate derived sol-gel. In the absence of antagonists, these two species exist in a complex that brings the two rhodamine labels into close proximity, resulting in a self-quenching dimer and thus a low fluorescence signal.
Columns 1 & 5 contain the protein-protein interaction between CaM and Mellitin. Both of which are labelled with rhodamine. Columns 2 & 4 are blank and contain only buffer. Column 3 contains CaM—Rhodamine alone and acts as a positive control. Upon addition of GdHCl (2M) to the top of the array and imaging every 20 s, the CaM-Mel columns increased in fluorescence over 2-fold (Panel B), while the positive control increased slightly initially but reached a relatively low steady-state value quickly (see graph, FIG. 7)

[4] = entrapped enzyme in platereader

T1 sequence (P07374 whole entry, looked up): as above

Compound: NC(N)=S [thiourea]
- Ki ([1]; urease entrapped in bulk sodium silicate glass, platereader): 54 ± 2 mM
- Ki ([1]; urease sol-gel microarray): 62 ± 7 mM
- Ki ([2]; urease in solution, literature range, different pH values (5.5 to 8)): 48 to 85 mM

Compound: NC(N)=O [urea]
- Km [1, 4]: 2350 ± 30 µM
- kcat [1, 4]: 1.33 ± 0.02 s⁻¹
- Km ([1]; sol-gel microarray): 1900 ± 100 µM
- kcat ([1]; sol-gel microarray): 1.1 ± 0.1 s⁻¹
- Km ([1]; solution, platereader): 1300 ± 200 µM
- kcat ([1]; solution, platereader): 78 ± 2 s⁻¹
- kcat of entrapped protein lower than in solution ([1]; urease, entrapped vs solution): up to 70 fold
- Km ([2]; urease, literature): 2900 µM

Compound: N=C(N)c1ccccc1 [benzamidine]
- effect on CaM-melittin complex / fluorescence intensity [3]: no changes in intensity above that obtained for CaM alone

Compound: N=C(N)N [guanidine hydrochloride]
- increase in fluorescence of CaM-Mel columns ([3]; GdHCl 2M added to top of array, imaging every 20 s): over 2 fold
- effect on CaM-melittin complex / fluorescence intensity [3]: the complex was dissociated
